Test system: 485176-168-R4-J1-PDC complex spheroid growth
Assay: Anticancer human tumor 485176-168-R4-J1-PDC patient-derived pancreatic adenocarcinoma cell line growth inhibition [RAS]
Conditions: for IC50: curve of first compound; for viability, T/C: stronger effect = lower value; active = viability on the fitted dose curve at most 10% of control; inactive = the rest
Procedure, shortened: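 Multi-cell-type spheroids: tumor cells plus HUVEC endothelial cells and mesenchymal stem cells. RAS-pathway inhibitors were combined with targeted agents, each dosed in half-log steps down from clinical Cmax, or from 10 microM when Cmax was unknown.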

[1] = second compound 0.000949 µM, first compound 0.0316 µM
[2] = second compound 0.000949 µM, first compound 0.1 µM
[3] = second compound 0.000949 µM, first compound 0.316 µM
[4] = second compound 0.000949 µM, first compound 1 µM
[5] = second compound 0.000949 µM, first compound 3.16 µM
[6] = second compound 0.000949 µM, first compound 10 µM
[7] = second compound 0.003 µM, first compound 0.0316 µM
[8] = second compound 0.003 µM, first compound 0.1 µM
[9] = second compound 0.003 µM, first compound 0.316 µM
[10] = second compound 0.003 µM, first compound 1 µM
[11] = second compound 0.003 µM, first compound 3.16 µM
[12] = second compound 0.003 µM, first compound 10 µM
[13] = second compound 0.00949 µM, first compound 0.0316 µM
[14] = second compound 0.00949 µM, first compound 0.1 µM
[15] = second compound 0.00949 µM, first compound 0.316 µM
[16] = second compound 0.00949 µM, first compound 1 µM
[17] = second compound 0.00949 µM, first compound 3.16 µM
[18] = second compound 0.00949 µM, first compound 10 µM
[19] = second compound 0.03 µM, first compound 0.0316 µM
[20] = second compound 0.03 µM, first compound 0.1 µM
[21] = second compound 0.03 µM, first compound 0.316 µM
[22] = second compound 0.03 µM, first compound 1 µM
[23] = second compound 0.03 µM, first compound 3.16 µM
[24] = second compound 0.03 µM, first compound 10 µM
[25] = second compound 0.0949 µM, first compound 0.0316 µM
[26] = second compound 0.0949 µM, first compound 0.1 µM
[27] = second compound 0.0949 µM, first compound 0.316 µM
[28] = second compound 0.0949 µM, first compound 1 µM
[29] = second compound 0.0949 µM, first compound 3.16 µM
[30] = second compound 0.0949 µM, first compound 10 µM
[31] = second compound 0.3 µM, first compound 0.0316 µM
[32] = second compound 0.3 µM, first compound 0.1 µM
[33] = second compound 0.3 µM, first compound 0.316 µM
[34] = second compound 0.3 µM, first compound 1 µM
[35] = second compound 0.3 µM, first compound 3.16 µM
[36] = second compound 0.3 µM, first compound 10 µM
[37] = second compound 0.000949 µM, first compound 0.00316 µM
[38] = second compound 0.000949 µM, first compound 0.01 µM
[39] = second compound 0.003 µM, first compound 0.00316 µM
[40] = second compound 0.003 µM, first compound 0.01 µM
[41] = second compound 0.00949 µM, first compound 0.00316 µM
[42] = second compound 0.00949 µM, first compound 0.01 µM
[43] = second compound 0.03 µM, first compound 0.00316 µM
[44] = second compound 0.03 µM, first compound 0.01 µM
[45] = second compound 0.0949 µM, first compound 0.00316 µM
[46] = second compound 0.0949 µM, first compound 0.01 µM
[47] = second compound 0.3 µM, first compound 0.00316 µM
[48] = second compound 0.3 µM, first compound 0.01 µM
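Also: spheroids exposed to compounds for seven days before readout.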
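For viability, T/C in this document: luminescence viability expressed relative to DMSO vehicle wells set as 100%.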

CC(C)NCC(C(=O)N1CCN(c2ncnc3c2C(C)CC3O)CC1)c1ccc(Cl)cc1 (stereo not drawn) + CCn1c(-c2cccnc2C(C)OC)c2c3cc(ccc31)N1CCOC(CC(NC(=O)C(C(C)C)N(C)C(=O)C3(F)CCN(C(=O)C#CC(C)(C)N(C)C)CC3)C(=O)N3CCCC(N3)C(=O)OCC(C)(C)C2)C1
510 nM: IC50 (second compound 0.3 µM)
1700 nM: IC50 (second compound 0.003 µM)
1250 nM: IC50 (second compound 0.00949 µM)
1180 nM: IC50 (second compound 0.03 µM)
2210 nM: IC50 (second compound 0.000949 µM)
1290 nM: IC50 (second compound 0.0949 µM)
inactive: viability, T/C [1] 98.8% | viability, T/C [2] 86% | viability, T/C [3] 79.7% | viability, T/C [4] 60% | viability, T/C [5] 44.9% | viability, T/C [6] 30% | viability, T/C [7] 98.4% | viability, T/C [8] 91% | viability, T/C [9] 76.7% | viability, T/C [10] 59.1% | viability, T/C [11] 39.6% | viability, T/C [12] 28.9% | viability, T/C [13] 91.8% | viability, T/C [14] 103% | viability, T/C [15] 73% | viability, T/C [16] 52.6% | viability, T/C [17] 45.4% | viability, T/C [18] 31.2% | viability, T/C [19] 84.5% | viability, T/C [20] 91.1% | viability, T/C [21] 74.1% | viability, T/C [22] 53.7% | viability, T/C [23] 34.7% | viability, T/C [24] 32.4% | viability, T/C [25] 94% | viability, T/C [26] 90.7% | viability, T/C [27] 78.7% | viability, T/C [28] 50.4% | viability, T/C [29] 40.9% | viability, T/C [30] 26.9% | viability, T/C [31] 73.6% | viability, T/C [32] 81% | viability, T/C [33] 51.7% | viability, T/C [34] 40.6% | viability, T/C [35] 27.3% | viability, T/C [36] 17.6%

CC(C)n1nc(-c2ccc3oc(N)nc3c2)c2c(N)ncnc21 + CCn1c(-c2cccnc2C(C)OC)c2c3cc(ccc31)N1CCOC(CC(NC(=O)C(C(C)C)N(C)C(=O)C3(F)CCN(C(=O)C#CC(C)(C)N(C)C)CC3)C(=O)N3CCCC(N3)C(=O)OCC(C)(C)C2)C1
16.6 nM: IC50 (second compound 0.03 µM)
7.54 nM: IC50 (second compound 0.3 µM)
21.3 nM: IC50 (second compound 0.00949 µM)
inactive: viability, T/C (second compound 0.000949 µM, first compound 0.000316 µM) 104% | viability, T/C (second compound 0.000949 µM, first compound 0.001 µM) 81.1% | viability, T/C [37] 93.7% | viability, T/C [38] 75.7% | viability, T/C [1] 38.5% | viability, T/C [2] 17.7% | viability, T/C (second compound 0.003 µM, first compound 0.000316 µM) 82.1% | viability, T/C (second compound 0.003 µM, first compound 0.001 µM) 79.9% | viability, T/C [39] 85.5% | viability, T/C [40] 72.5% | viability, T/C [7] 48.1% | viability, T/C [8] 21.4% | viability, T/C (second compound 0.00949 µM, first compound 0.000316 µM) 88.1% | viability, T/C (second compound 0.00949 µM, first compound 0.001 µM) 89.4% | viability, T/C [41] 84.1% | viability, T/C [42] 61.8% | viability, T/C [13] 43.9% | viability, T/C [14] 16% | viability, T/C (second compound 0.03 µM, first compound 0.000316 µM) 85.5% | viability, T/C (second compound 0.03 µM, first compound 0.001 µM) 84.5% | viability, T/C [43] 85.7% | viability, T/C [44] 62.6% | viability, T/C [19] 33% | viability, T/C [20] 18.6% | viability, T/C (second compound 0.0949 µM, first compound 0.000316 µM) 90.5% | viability, T/C (second compound 0.0949 µM, first compound 0.001 µM) 86.9% | viability, T/C [45] 69% | viability, T/C [46] 65% | viability, T/C [25] 36.9% | viability, T/C [26] 19.9% | viability, T/C (second compound 0.3 µM, first compound 0.000316 µM) 76.9% | viability, T/C (second compound 0.3 µM, first compound 0.001 µM) 72.8% | viability, T/C [47] 59.3% | viability, T/C [48] 44.1% | viability, T/C [31] 34.1% | viability, T/C [32] 14.2%
17.4 nM: IC50 (second compound 0.0949 µM)
28.6 nM: IC50 (second compound 0.003 µM)
22.2 nM: IC50 (second compound 0.000949 µM)

CC(Nc1ccc2c(c1)OCCn1cc(N3C(=O)OCC3C(F)F)nc1-2)C(N)=O (stereo not drawn) + CCn1c(-c2cccnc2C(C)OC)c2c3cc(ccc31)N1CCOC(CC(NC(=O)C(C(C)C)N(C)C(=O)C3(F)CCN(C(=O)C#CC(C)(C)N(C)C)CC3)C(=O)N3CCCC(N3)C(=O)OCC(C)(C)C2)C1
inactive: viability, T/C [1] 92.9% | viability, T/C [2] 73.4% | viability, T/C [3] 93.6% | viability, T/C [4] 77.1% | viability, T/C [5] 84.2% | viability, T/C [6] 45% | viability, T/C [7] 97.2% | viability, T/C [8] 86.6% | viability, T/C [9] 85.7% | viability, T/C [10] 74.5% | viability, T/C [11] 85.4% | viability, T/C [12] 45.2% | viability, T/C [13] 94.4% | viability, T/C [14] 79.2% | viability, T/C [15] 77.6% | viability, T/C [16] 70.9% | viability, T/C [17] 98.3% | viability, T/C [18] 47.1% | viability, T/C [19] 76.8% | viability, T/C [20] 94.1% | viability, T/C [21] 88.9% | viability, T/C [22] 73.4% | viability, T/C [23] 76.1% | viability, T/C [24] 56.5% | viability, T/C [25] 90.4% | viability, T/C [26] 67.9% | viability, T/C [27] 75.8% | viability, T/C [28] 51.9% | viability, T/C [29] 89.6% | viability, T/C [30] 57% | viability, T/C [31] 61.5% | viability, T/C [32] 73.4% | viability, T/C [33] 60.4% | viability, T/C [34] 61.5% | viability, T/C [35] 59.2% | viability, T/C [36] 39.9%
9140 nM: IC50 (second compound 0.00949 µM)
> 10000 nM: IC50 (second compound 0.03 µM) | IC50 (second compound 0.0949 µM)
5260 nM: IC50 (second compound 0.3 µM)
8610 nM: IC50 (second compound 0.000949 µM)
8690 nM: IC50 (second compound 0.003 µM)

O=C(c1ccc(F)c(F)c1Nc1ccc(I)cc1F)N1CC(O)([C@@H]2CCCCN2)C1 + CCn1c(-c2cccnc2C(C)OC)c2c3cc(ccc31)N1CCOC(CC(NC(=O)C(C(C)C)N(C)C(=O)C3(F)CCN(C(=O)C#CC(C)(C)N(C)C)CC3)C(=O)N3CCCC(N3)C(=O)OCC(C)(C)C2)C1
154 nM: IC50 (second compound 0.00949 µM)
409 nM: IC50 (second compound 0.003 µM)
inactive: viability, T/C [37] 90.4% | viability, T/C [38] 79% | viability, T/C [1] 86.3% | viability, T/C [2] 61.4% | viability, T/C [3] 53.8% | viability, T/C [4] 39.9% | viability, T/C [39] 79.3% | viability, T/C [40] 65.8% | viability, T/C [7] 73.2% | viability, T/C [8] 58% | viability, T/C [9] 50.9% | viability, T/C [10] 43.7% | viability, T/C [41] 77.8% | viability, T/C [42] 85.8% | viability, T/C [13] 68.6% | viability, T/C [14] 55% | viability, T/C [15] 43.4% | viability, T/C [16] 36% | viability, T/C [43] 97.1% | viability, T/C [44] 89.8% | viability, T/C [19] 69.3% | viability, T/C [20] 51.9% | viability, T/C [21] 56.7% | viability, T/C [22] 36.7% | viability, T/C [45] 89.7% | viability, T/C [46] 64.1% | viability, T/C [25] 68.6% | viability, T/C [26] 53.6% | viability, T/C [27] 44.2% | viability, T/C [28] 32.3% | viability, T/C [47] 67.2% | viability, T/C [48] 70.8% | viability, T/C [31] 50.2% | viability, T/C [32] 45.6% | viability, T/C [33] 40% | viability, T/C [34] 39.5%
349 nM: IC50 (second compound 0.000949 µM)
32.6 nM: IC50 (second compound 0.3 µM)
235 nM: IC50 (second compound 0.03 µM)
142 nM: IC50 (second compound 0.0949 µM)

From PubChem BioAssay AID2060906 (Molecular Pharmacology Branch, DTP, NCI, 2025)
